The source of these data is ChEMBL document CHEMBL1138435, “A novel antibacterial iridoid and triterpene from Caiophora coronata” (2003).

In test [1] the test system is Staphylococcus aureus. The test can be described thus: Antimicrobial activity against methicillin-sensitive Staphylococcus aureus 375 after 18 hrs by twofold serial microbroth dilution method. In kind it is functional. Conditions: Staphylococcus aureus, 375, 18 h.
The subject of test [2] is Staphylococcus aureus. The test can be described thus: Antimicrobial activity against methicillin-resistant Staphylococcus aureus 310 after 18 hrs by twofold serial microbroth dilution method. In kind it is functional. The note with it: Staphylococcus aureus, 310, 18 h.
The test system of the next test is Bacillus subtilis. Nature of the test: Antimicrobial activity against Bacillus subtilis 327 after 18 hrs by twofold serial microbroth dilution method. In kind it is functional. Conditions: Bacillus subtilis, 327, 18 h.
The subject of a further test is Enterococcus faecium. The test can be described thus: Antimicrobial activity against vancomycin-resistant Enterococcus faecium 379 after 18 hrs by twofold serial microbroth dilution method. Type of test: functional. Conditions: Enterococcus faecium, 379, 18 h.
For test [3], the system named is Escherichia coli. The test can be described thus: Antimicrobial activity against Escherichia coli 442 after 18 hrs by twofold serial microbroth dilution method. Type of test: functional. Conditions: Escherichia coli, 442, 18 h.
For test [4], the system named is Escherichia coli. The test can be described thus: Antimicrobial activity against Escherichia coli 389 after 18 hrs by twofold serial microbroth dilution method. In kind it is functional. Conditions: Escherichia coli, 389, 18 h.
A further test concerns Candida albicans. The test can be described thus: Antimicrobial activity against Candida albicans 54 after 18 hrs by agar diffusion method. In kind it is functional.
Test [5] deals with Escherichia coli. Nature of the test: Antimicrobial activity against Escherichia coli 442 after 18 hrs by agar diffusion method. Type of test: functional, organism-based.

Structures are written as SMILES. Values after ≈ are worked out from the molar mass of the structure shown. Active and inactive are the calls of the source. The calls are words filed in the database; no cut-off is given here.

As to `CO[C@H]1OC(=O)[C@H](C)[C@@H]2[C@@H]1[C@@H](CO)C[C@@H]2O` [CAIOPHORAENIN], the minimum inhibitory concentration (MIC) in the test with Staphylococcus aureus [1], against Staphylococcus aureus [2], against Bacillus subtilis, against Enterococcus faecium, in the test on Escherichia coli [3] and in the test with Escherichia coli [4] was over 128 mg/L throughout. Also, the “inhibition zone (IZ)” value in the test with Candida albicans and with Escherichia coli [5] was “inactive” in each case.

As to `CC1(C)S[C@@H]2[C@H](NC(=O)Cc3ccccc3)C(=O)N2[C@H]1C(=O)O` [PENICILLIN G], the minimal inhibitory concentration (MIC) against Staphylococcus aureus [1] was 0.06 mg/L (≈ 0.179 µM); with Staphylococcus aureus [2], 128 mg/L (≈ 383 µM); against Bacillus subtilis, 32 mg/L (≈ 95.7 µM); against Enterococcus faecium it was 32 mg/L (≈ 95.7 µM); against Escherichia coli [4], 4 mg/L (≈ 12 µM); against Candida albicans (Candida albicans, 54, 18 h), over 128 mg/L.

As for `C[C@H]1[C@H](C)CC[C@]2(C)CC[C@]3(C(=O)O)C(=CC[C@@H]4[C@@]5(C)[C@H](O)C[C@H](O)C(C)(C)[C@@H]5CC[C@]43C)[C@H]12`, the MIC turned out to be 4 mg/L (≈ 8.46 µM) against Staphylococcus aureus [1]; 4 mg/L (≈ 8.46 µM) with Staphylococcus aureus [2]; 2 mg/L (≈ 4.23 µM) against Bacillus subtilis; 4 mg/L (≈ 8.46 µM) against Enterococcus faecium; 16 mg/L (≈ 33.8 µM) in the test on Escherichia coli [4]. Also, the “inhibition zone (IZ)” value with Candida albicans and in the test with Escherichia coli [5] was “inactive” each time.

On to `C[C@@H]1[C@@H]2COC(=O)C[C@H]2C[C@@H]1O` [ISOBOONEIN], for which the MIC with Staphylococcus aureus [1], against Staphylococcus aureus [2], in the test on Bacillus subtilis, in the test on Enterococcus faecium, against Escherichia coli [3] and in the test with Escherichia coli [4] was over 128 mg/L in each case. Further, the “inhibition zone (IZ)” value with Candida albicans and with Escherichia coli [5] was “inactive” each time.
